We go through five compounds from article PMC10788937, “Chemical Catalysis Guides Structural Identification for the Major In Vivo Metabolite of the BET Inhibitor JQ1” (ACS Medicinal Chemistry Letters, 2024).

pIC50, pKd: −log10 of the molar value.

For orientation: pKd means the negative decadic logarithm of the Kd, by convention in mol/L. In general, half-life refers to the time in which the quantity being followed falls by half. The term pIC50 denotes the negative decadic logarithm of the IC50, by convention in mol/L. Broadly, the AUC(0-t) is exposure summed from dosing to a finite time, without extrapolation to infinity. For orientation: CL/F means the apparent clearance, not corrected for the fraction that reaches the circulation.

Data set [1] concerns the target BRDT (Homo sapiens, UniProt Q58F21). Format: binding. The following applies: SPR, his-BRDT; for pKd: read-out: BRDT binding Kd. The method, then:
(§1) The samples are collected at specific time-points (0, 5, 10, 20, 40, and 60 min. The reactions are terminated by adding equivalent volume of ice-cold MeOH and vortexed. The reaction mixtures are centrifuged at rcf 15,000 for 15 min. Five μL of the supernatant will be analyzed by UHPLC-Q Exactive Orbitrap MS (Thermo Fisher Scientific, San Jose, CA) equipped with 50 mm × 4.6 mm column (XDB C-18, Agilent Technologies, Santa Clara, CA). The column temperature is maintained at 40 °C. The flow rate of is at 0.3 mL/min with a 30% mobile phase (acetonitrile containing 0.1% formic acid). Q Exactive MS is operated in positive or negative mode with electrospray ionization. Ultrapure nitrogen is applied as the sheath (45 arbitrary unit), auxiliary (10 arbitrary unit), sweep (1.0 arbitrary unit) and the collision gas. The capillary gas temperature is set at 275 °C and the capillary voltage was set at 3.7 kV. MS data were acquired from 80 to 1200 Da in […]
(§2) The Surface Plasmon Resonance (SPR) experiment was conducted using a Pioneer FE SPR System (Sartorius) equipped with a SPR HisCap Sensor
(§3) Chip. The instrument was calibrated and validated prior to the experiment according to the manufacturer's instructions. The chip surface was activated with a mixture of N-hydroxysuccinimide (NHS), 50 mM, and N-ethyl-N'-(3-dimethylaminopropyl) carbodiimide (EDC), 200 mM, at a 20 µL/min flow rate for 5. minutes. Covalent attachment of his-BRDT to channel 1 was achieved by injecting 150 µL of protein at 10 mg/mL at […]. Channel 2 of the chip was used as a blank reference and unreacted functional groups of both channels were blocked using ethanolamine.
(§4) SPR running buffer consisted of 100 mM Tris-HCl, 200 mM NaCl, and 0.05% Tween-20. […]
(§5) closely mimics the buffer conditions and injected at 40µL/min using the OneStep injection system at 0.5, 5, and 50 µM concentrations. The real-

Data set [2] in a line: in vitro. The method, then:
as §1, §2, §3, §4, §5

The nature of data set [3]: Isotopomeric ratios from the pharmacokinetic time course in mice. It counts as in vivo. As to conditions: first time point.
The conditions of data set [4]: cited from earlier work.
Data set [5] concerns BRD4. The following applies: read-out: BRD4 IC50; ALPHAScreen, biotin-tagged (+)-JQ1 probe.
The nature of data set [6]: Pharmacokinetic studies in mice (1:1 mixture, intraperitoneal). It counts as in vivo, mice (C57BL/6NJ). As to conditions: for AUC(0-t) / CL/F / half-life at 24 h: C57BL/6NJ, mouse, plasma, ip, 50 mg/kg 1:1 mixture, intraperitoneal. From the text:
The observed improvement in male mice was not determined to be significant, but the gender differences are not unprecedented in human drug metabolism, as the clearance of CYP3A substrates occurs more rapidly by females than males.[35] Gender differences in hepatic CYP expression have been identified in mice, rats, and humans,[36] including a female-specific CYP3A family member in mice,[37] and circadian variations in mice can accentuate the sex differences in CYP3A isoform expression.[38] […] It is noteworthy that the relationship between AUC and half-life can be affected with no correlation due to influence on both by various factors such as target-mediated drug disposition, drug formulation, route of administration, metabolism, absorption, and elimination pathways.[39],[40] AUC0–t represents the cumulative effect, while t1/2 represents only the rate at which the drug is eliminated from the body. […]
time binding response was recorded using the instrument software and sensorgrams were analyzed using the QDAT software. The baseline subtraction, referencing, and double-referencing techniques were applied to obtain specific binding responses. Kinetic parameters were calculated by fitting sensograms to OneStep binding models for determining the dissociation rate constant (kd) for the highest concentration and constraining the lower concentrations to the determined value. All data was locally fitted to a simple 1:1 interaction model.
Pharmacokinetic studies in mice
Mouse studies were performed under protocols approved by the Institutional Animal Care and Use Committee of Baylor College of Medicine and guidelines established by the NIH Guide for the Care and Use of Laboratory Animals. Animals were housed under standard conditions of a 12-hour light/dark cycle in a vivarium with controlled ambient temperature (70˚ ± 2˚ and 20-70% relative humidity). Pharmacokinetic studies were performed using 8-12-week-old mice (C57BL/6NJ, female, n =4 and male n = 4)). Mice were administered 50 mg/kg of compounds (1:1 of mixtures of (+)-JQ1 and (+)-JQ1-D) via intraperitoneal injection to mice. Twenty µl of blood was collected via the tail vein at 0, 15, 30 minutes, 1, 2, 4, 8, and 24 hours post treatment. To 10 ul of plasma was added 25 ul of MeOH with internal standard. The resulting mixtures were vortexed and span at rcf 15,000 for 15 min and 5 ul of the supernatant were injected into the UHPLC-Q Exactive Orbitrap MS for analysis. The concentrations of tested compounds were calculated based on their corresponding standard curves. Pharmacokinetic parameters including half-time (t1/2), area under the plasma concentration–time curve during the period of observation (AUC0–t), clearance normalized by bioavailability (CL/F) were calculated on WinNonlin software (Certara, Princeton, NJ) by noncompartmental analysis.

With `Cc1c(CF)sc2c1C(c1ccc(Cl)cc1)=N[C@@H](CC(=O)OC(C)(C)C)c1nnc(C)n1-2` [(+)-JQ1-F1], in data set [1], the “BRDT binding Kd” value is recorded as “lost potency” and the pKd was 6.14. The compound further yielded a half-life at 1 h, 0.2 μM in data set [2] (human, microsomes) of 52 min.

Turning to `Cc1c(C(F)F)sc2c1C(c1ccc(Cl)cc1)=N[C@@H](CC(=O)OC(C)(C)C)c1nnc(C)n1-2` [(+)-JQ1-F2], in data set [1], the “BRDT binding Kd” value is listed as “lost potency” and the pKd was 5.41. For the same compound, the “Human liver microsomal t1/2” value in data set [2] (0.1 mg/mL microsomal protein) was “substantially improved half-life”. Also, the half-life at 1 h, 0.2 μM in data set [2] (human, microsomes) was 125 min.

Turning to `Cc1c(CO)sc2c1C(c1ccc(Cl)cc1)=N[C@@H](CC(=O)OC(C)(C)C)c1nnc(C)n1-2` [M1], the results for the M1/M1D ratio in data set [3] (female mice) and in data set [3] (male mice) were 2.095 ± 0.089 and 1.799 ± 0.043, respectively.

On to `Cc1sc2c(c1C)C(c1ccc(Cl)cc1)=N[C@@H](CC(=O)OC(C)(C)C)c1nnc(C)n1-2` [(+)-JQ1, reference compound], for which, in data set [4], the in vivo half-life result is recorded as “about an hour”. Also, in data set [2] (human, microsomes), the half-life at 0.2 μM is 7.9 min and the half-life at 1 h, 0.2 μM was determined as […]. The compound also returned a half-life at 1 h, 0.2 μM in data set [2] (mouse, microsomes) of 11 min. For the same compound, the negative-log IC50 (pIC50) in data set [5] was […]. In data set [6] (female mice), the AUC(0-t) is 41100 ng·h/mL, the CL/F was […] and the half-life at 24 h is 116 min. Moreover, in data set [6] (male mice), the AUC(0-t) was determined as 75100 ng·h/mL, the apparent clearance CL/F was 11 mL/min/kg and the half-life at 24 h is […].

As for `[2H]C([2H])([2H])c1sc2c(c1C)C(c1ccc(Cl)cc1)=N[C@@H](CC(=O)OC(C)(C)C)c1nnc(C)n1-2` [(+)-JQ1-D], the half-life at 1 h, 0.2 μM in data set [2] (human, microsomes) worked out at 22.5 min. The compound also gave a half-life at 1 h, 0.2 μM in data set [2] (mouse, microsomes) of 19.8 min. Moreover, the pIC50 in data set [5] is […]. Moreover, in data set [6] (female mice), the AUC(0-t) is 50500 ng·h/mL, the CL/F is 16.5 mL/min/kg, the half-life at 24 h is 148 min and the “improvement of total exposure (AUC0–t) compared to (+)-JQ1” value is 23%. In addition, in data set [6] (male mice), the AUC(0-t) is 94200 ng·h/mL, the apparent clearance CL/F was 8.8 mL/min/kg, the half-life at 24 h is 181 min and the “improvement of total exposure (AUC0–t) compared to (+)-JQ1” value is given as 25%.
